Values joined by “and” are separate entries in the source; they are usually repeats but may differ in a detail not shown here. Equal values may be shown once.

In data set [1] the test system is diffuse sebaceous gland hyperplasia. Briefly: Split-face radiant IR skin preparation prior to PDT, diffuse sebaceous gland hyperplasia (Example 4). Type of data set: in vivo, human. The procedure:
A PDT treatment was performed on the face of a patient suffering from diffuse sebaceous gland hyperplasia. They were complaining of redness exacerbated by exercise/effort. […] Facial lesions were distributed mainly on the forehead and cheeks. […] They applied only topical Metrogel. […] Also, comedones and papulo-pustules were present. The patient was skin phototype II (Fitzpatrick classification). Their parent had similar skin condition.
Prior to PDT, radiant IR skin preparation was performed in only half of face (split face study). Then PDT was completed on the complete facial area. First, the face was washed with a mild soap and an acetone scrub was performed. A 970 nm LED source prototype emitting at 50 mW/cm2 in a CW mode was placed at 1.5 cm from the right side of face and left for 25 min. Right after split face irradiation, 5-aminolevilinic acid (Levulan™ Kerastick™) was applied to the treatment area and left for 90 min. The photosensitizer was then light activated by a 630 nm LED source emitting at 50 mW/cm^2 (LumiPhase-RB, Opusmed, Canada), until erythema was reached (20 min). This treatment was concluded by a 405 nm LED source emitting at 30 mW/cm^2 (LumiPhase-RB, Opusmed, Canada), for 5 min. […] Through a mechanism involving the opening of skin pores, IR radiant skin preparation enhanced drug penetration and absorption by the targeted structures (i.e. sebaceous glands).

Data set [2] relates to cystic acne. Briefly: Split face/back pre-PDT radiant IR study, 11 cystic acne patients (Example 7). Type of data set: in vivo, human. Conditions: IR 970 nm 50 mW/cm2 15 min before 5-ALA; one month after PDT; most patients. As to the method: Study Design/Materials and Methods: Eleven (11) patients were enrolled in a split face or split back (pre-treated side versus control) study with a pre-approved IRB protocol. […] Lesion count was assessed both manually and by digital photography before and 4 weeks after one PDT procedure. Prior to the application of 5-ALA, one side of the face or back was pre-treated with radiant IR [CW LEDs emitting @λ 970 nm, irradiance 50 mW/cm2 for 15 minutes, total fluence 45 J/cm2], while the other half was used as control. PDT was then performed on the entire surface (face or back).

Data set [3] relates to cystic acne. As to the kind of experiment: Split face/back pre-PDT radiant IR study, 10 cystic acne patients (Example 8). Type of data set: in vivo, human. Conditions: for decrease in the number of cystic lesions: one month after PDT. The procedure:
In summary, ten patients were enrolled in a split face or split back (pre-treated side versus control) study with a pre-approved IRB protocol. […] Lesion count was assessed both manually and by digital photography before and 4 weeks after one PDT procedure. Prior to the application of 5-ALA, one side of the face or back was pre-treated with radiant IR [CW LEDs emitting @λ 970 nm, irradiance 50 mW/cm2 for 15 minutes, total fluence 45 J/cm2], while the other half was used as control. PDT was then performed on the entire surface (face or back) using 5-ALA in a conventional manner.
Patients were assigned to a split face or split back group. One side was pre-treated for 15 minutes with radiant IR [CW LEDs emitting @λ 970 nm, irradiance 50 mW/cm^2, total fluence 45 J/cm^2] to obtain a temperature of about 42 Celsius, while the other side was used as control. ALA was then applied after which PDT was performed on the entire face or back surface. Lesion count was assessed manually and by digital photography, before and 4 weeks after the PDT procedure. Exclusion criteria were: current use of the following medications: (Prednisone), anticoagulant therapy, drugs known to cause photo-sensitivity reactions. In addition, during 12 months preceding the study, subjects are required not to take Accutane (isotretinoin); use of corticosteroids on the treated area within 2 weeks of first treatment; use of topical tretinoin (like Retisol-A, Retin-A, Vitamin A acid, Retin-A micro) for at least 1 month prior to enrollment; yanned skin around or on the area to be treated: the back. previous laser of medicated treatment at the treatment site (to be studied) and for the duration of the study; presence of any known diseases among vitiligo, psoriasis, severe eczema, poor skin healing. active infection, immunosuppression, coagulation problem, peripheral arterial disease, hematologic abnormalities, vasculitis, and previous history of epilepsy; pregnancy; alcohol or drug abuse before and during the study.
After the pre-treatment with IR radiation, 5-ALA was applied onto slightly abraded skin and left to incubate for 60 minutes on both IR-pre-treated and control sides. Then, the 5-ALA treated regions were irradiated with a LED source of red light (wavelength of […], in accordance to standard therapy, until a mild to moderate erythema appeared. Immediately afterwards, the 5-ALA treated regions were irradiated with a LED source of blue light (wavelength of 405 nm, power density 30 mW/cm^2) in continuous wave mode for 3 min.

The subject of data set [4] is conversion of 5-ALA to protoporphyrin IX (PpIX). As to the kind of experiment: Fluoderm fluorescence after 940 nm photopreparation and 5-ALA, one subject (Example 11). It counts as in vivo, human. The procedure: In order to measure the effect of photopreparation on the skin we used an LED device (Lumiphase 940 nm, CW and Pulsed, irradiance: 70 mW/cm2, OpusMed, Montreal, Canada) prior to the application of a photosensitizer (5-ALA: Levulan, Kerastick, DUSA Pharmaceuticals, USA). We tested both CW and sequential pulsing modes 24 h and 30/15 minutes (total fluence 63 J/cm^2 before the application of 5-ALA for 3 hours). Following an incubation time of 3 hours, we measured the fluorescence induced by the conversion of 5-ALA to protoporphyrin IX (PpIX) with a dedicated device (Fluoderm, Dia-Medico ApS, Danemark). The pulsed radiation, referred to as D50 hereinbelow, consisted in pulse trains of 4 pulses with pulses lasting 500 μs separated with an inter-pulse interval within each train of 150 μs. The pulse trains were separated from each other by 1550 μs. Higher numbers mean higher conversion to PpIX, and thus indicate that the PDT treatment will be more efficient. All parameters were tested on adjacent portion of the subject's skin. The experiment was performed on the back of a person with phototype I.

In data set [5] the test system is actinic keratosis lesions. Briefly: Split-face radiant IR skin preparation prior to PDT, actinic keratosis of face and scalp (Example 5). Conditions: single PDT treatment.

`NCC(=O)CCC(=O)O` [5-ALA, 5-aminolevulinic acid]: in data set [1] (especially on the radiant IR pre-treated side), the “time clearing was maintained post-treatment” value was “up to 6 months”. For the same compound, the “improvement of SH lesions” value in data set [1] (other side, no IR preparation, PDT alone, single treatment) is listed as 30%. Further, in the data set with cystic acne [2], the “number of cystic lesions, pre-treated versus control side” value is on record as “statistically significant decrease in the number of cystic lesions”. The “decrease in the number of cystic lesions” value with cystic acne [3] (IR pre-treated side (970 nm, 50 mW/cm2, 15 min)) is 72.5%; in the data set on cystic acne [3] (control side (no IR)), 47.1%. Besides, the “mean+/-standard error number of lesions after treatment” value with cystic acne [3] (IR treated site, baseline 49.7+/-13.7) is reported as 12.0+/−2.3; in the data set on cystic acne [3] (control side, baseline 35.9+/-8.3), 16.3+/−3. In the data set with cystic acne [3] (both sides), the treatment-related adverse effects entry is given as “No treatment-related adverse effects were reported”. In addition, the “Fold increase of fluorescence compared to 5-ALA alone” value is 1.09 fold and 1.03 fold in data set [4] (PP 15 min pre-5-ALA: CW - 15 min); 1.19 fold in data set [4] (PP 30 min pre-5-ALA: D50 - 30 min); 1.13 fold in data set [4] (PP 24 h pre-5-ALA: CW - 15 min); 1.45 fold in data set [4] (PP 24 h pre-5-ALA: D50 - 30 min); 1 fold in data set [4] (Positive control: 5-ALA alone). In addition, the “Fluoderm Measurements, Post 3 hour incubation (5-ALA)” value was determined as 51 in data set [4] (PP 15 min pre-5-ALA: CW - 15 min, 940 nm, 70 mW/cm2); 59 in data set [4] (PP 30 min pre-5-ALA: D50 - 30 min, 940 nm, 70 mW/cm2); 56 in data set [4] (PP 24 h pre-5-ALA: CW - 15 min, 940 nm, 70 mW/cm2); 72 in data set [4] (PP 24 h pre-5-ALA: D50 - 30 min, 940 nm, 70 mW/cm2); 49.5 in data set [4] (Positive control: 5-ALA alone, no photopreparation). In addition, the lesion clearance in data set [5] (left side, no IR pre-treatment) is reported as 40%; in data set [5] (right side, IR pre-treated (970 nm, 40 mW/cm2, 30 min), 90 min incubation), 60%.
